Source: patent US11000033B2, “Ketone or oxime compound, and herbicide” (NISSAN CHEMICAL CORPORATION, priority 2014, dated 2021)

Tests used:
Assay type in all cases: in vivo
Galium spurium = assay: Test Example 5: herbicidal effect by foliage application, plastic box (symbol Q); details: 320 g/ha, 3 weeks after application
Summary of the method: (§1)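 After sowing into sterilized diluvial soil and growing two weeks under glass at 25° C. to 30° C., seedlings receive a uniform foliar spray of diluted emulsion. Damage is judged visually three weeks on.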

Cyperus difformis = assay: Test Example 3: herbicidal effect by foliage application, Wagner pot (symbol E); details: application herbicide amount 320 g/ha
Summary of the method: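 Alluvial soil was flooded to a depth of 0.1–0.5 cm, seeded with the weeds and rice, and kept in a greenhouse at 25–30 °C. After 14 days of growth, the foliage received a small-sprayer application of emulsion diluted to the intended rate; injury was rated at 3 weeks.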

[1] = test system: Echinochloa crus-galli var. crus-galli; assay: Test Example 5: herbicidal effect by foliage application, plastic box (symbol H); details: 320 g/ha, 3 weeks after application
Summary of the method: as §1

Monochoria vaginalis [2] = assay: Test Example 2: herbicidal activity, application during weed generation in submerged conditions (symbol C); details: Table 23; application herbicide amount 320 g/ha; grade 0-5 by criteria of Test Example 1
Summary of the method: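 Weeds emerging under flooded conditions were treated with compound formulated as an emulsion and diluted with water to the intended herbicide amount, poured onto the surface of 4 cm standing water. Seeds had been co-sown in alluvial soil; plants grew at 25° C. to 30° C. and were assessed after 3 weeks.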

Monochoria vaginalis [3] = assay: Test Example 1: herbicidal activity, application before weed generation in submerged conditions (symbol C); details: application herbicide amount 320 g/ha
Summary of the method: (§2)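 Flooded alluvial soil (4 cm water) was mixed-sown with the three weed species, and 2.5-leaf rice seedlings were transplanted. On sowing day, a water-diluted emulsion at a predetermined rate was applied to the water surface. After 3 weeks in a 25–30 °C greenhouse, effect was scored 0–5.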

[4] = test system: Echinochloa oryzacola Vasing.; assay: Test Example 1: herbicidal activity, application before weed generation in submerged conditions (symbol A); details: application herbicide amount 320 g/ha
Summary of the method: as §2

Avena fatua = assay: Test Example 5: herbicidal effect by foliage application, plastic box (symbol I); details: 320 g/ha, 3 weeks after application
Summary of the method: as §1

Amaranthus retroflexus [5] = assay: Test Example 4: herbicidal effect by soil treatment (symbol N); details: application herbicide amount 320 g/ha
Summary of the method: (§3)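 Seeds were sown in sterilized diluvial soil, covered with about 1.5 cm of soil, and the soil surface was sprayed with a water-diluted emulsion of the compound at a predetermined rate. Plants grew in a greenhouse at 25° C. to 30° C.; effects were scored visually 3 weeks after application.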

Amaranthus retroflexus [6] = assay: Test Example 5: herbicidal effect by foliage application, plastic box (symbol N); details: 320 g/ha, 3 weeks after application
Summary of the method: as §1

[7] = test system: directly sowed rice plant; assay: Test Example 3: effect on crop by foliage application, Wagner pot (symbol b); details: application herbicide amount 320 g/ha
Summary of the method: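 Greenhouse culture at 25–30 °C of seeded rice, Cyperus difformis, Leptochloa chinensis and Echinochloa crus-galli var. crus-galli, in alluvial soil held under 0.1–0.5 cm of water in a Wagner pot.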

Apera spica-venti = assay: Test Example 4: herbicidal effect by soil treatment (symbol L); details: application herbicide amount 320 g/ha
Summary of the method: as §3

Digitaria ciliaris = assay: Test Example 4: herbicidal effect by soil treatment (symbol F); details: application herbicide amount 320 g/ha
Summary of the method: as §3

Alopecurus myosuroides = assay: Test Example 5: herbicidal effect by foliage application, plastic box (symbol J); details: 320 g/ha, 3 weeks after application
Summary of the method: as §1

rapeseed = assay: Test Example 4: effect on crop by soil treatment (symbol g); details: application herbicide amount 320 g/ha
Summary of the method: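 Seeds were sown in spots on sterilized diluvial soil in a plastic box and covered with about 1.5 cm of soil. Plants were then grown in a greenhouse at 25° C. to 30° C.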

SMILES | Q: Galium spurium, herbicidal effect grade (Galium spurium) | herbicidal effect on E, grade 0-5 (Cyperus difformis) | H: Echinochloa crus-galli var. crus-galli, herbicidal effect grade [1] | Herbicidal effect grade, C: Monochoria vaginalis (Monochoria vaginalis [2]) | Herbicidal effect grade, C: Monochoria vaginalis (Monochoria vaginalis [3]) | Herbicidal effect grade, A: Echinochloa oryzacola Vasing. [4] | I: Avena fatua, herbicidal effect grade (Avena fatua) | N (Amaranthus retroflexus) herbicidal effect grade (Amaranthus retroflexus [5]) | N: Amaranthus retroflexus, herbicidal effect grade (Amaranthus retroflexus [6]) | effect on crop b (directly sowed rice plant), grade 0-5 [7] | L (Apera spica-venti) herbicidal effect grade (Apera spica-venti) | F (Digitaria ciliaris) herbicidal effect grade (Digitaria ciliaris) | J: Alopecurus myosuroides, herbicidal effect grade (Alopecurus myosuroides) | g (rapeseed) effect on crop grade (rapeseed)
CCCCCCCCC(=O)OC1=C(c2c(C)cc(C)cc2C)C(=O)C(CC(C)=NOC)C1 (stereo not shown) [1-033] | 1 (Herbicidal ratio of 5% or higher and lower than 20%) | 5 (Herbicidal ratio of 90% or more (almost completely withered)) | 5 (Herbicidal ratio of 90% or more (almost completely withered)) | 2 (Herbicidal ratio of 20% or higher and lower than 40%) | 1 (Herbicidal ratio of 5% or higher and lower than 20%) | 5 (Herbicidal ratio of 90% or more (almost completely withered)) | 5 (Herbicidal ratio of 90% or more (almost completely withered)) | 5 (Herbicidal ratio of 90% or more (almost completely withered)) | 4 (Herbicidal ratio of 70% or higher and lower than 90%) | 5 (Herbicidal ratio of 90% or more (almost completely withered)) | 5 (Herbicidal ratio of 90% or more (almost completely withered)) | 5 (Herbicidal ratio of 90% or more (almost completely withered)) | 5 (Herbicidal ratio of 90% or more (almost completely withered)) | 5 (Herbicidal ratio of 90% or more (almost completely withered))
CON=C(C)CC1CC(O)=C(c2c(C)cc(C)cc2C)C1=O (stereo not shown) [1-002, 3-hydroxy-2-mesityl-5-{2-(methoxyimino)propyl}cyclopent-2-enone] | 4 (Herbicidal ratio of 70% or higher and lower than 90%) | 5 (Herbicidal ratio of 90% or more (almost completely withered)) | 5 (Herbicidal ratio of 90% or more (almost completely withered)) | 3 (Herbicidal ratio of 40% or higher and lower than 70%) | 4 (Herbicidal ratio of 70% or higher and lower than 90%) | 5 (Herbicidal ratio of 90% or more (almost completely withered)) | 5 (Herbicidal ratio of 90% or more (almost completely withered)) | 5 (Herbicidal ratio of 90% or more (almost completely withered)) | 5 (Herbicidal ratio of 90% or more (almost completely withered)) | 5 (Herbicidal ratio of 90% or more (almost completely withered)) | 5 (Herbicidal ratio of 90% or more (almost completely withered)) | 5 (Herbicidal ratio of 90% or more (almost completely withered)) | 5 (Herbicidal ratio of 90% or more (almost completely withered)) | 5 (Herbicidal ratio of 90% or more (almost completely withered))
